Tests used:
[1] = test system: U293 cells transduced with α6 integrin, E-cadherin or both; experiment: Liver adhesion assay on frozen sections of grossly normal human liver; type: cell-based; conditions: 30 minutes, versus control peptide
Text: (§1) Preparation of cells stably overexpressing the MTS-targeted proteins. The cDNA of FLAG-tagged human angiopoietin-like 6, inserted into pcDNA3.1 (+).Neo vector (pcDNA3.ANGL6), was a gift from Dr. Y. Oike (Japan Science and Technology Agency, Japan (Minn et al., 2007, Proc Natl Acad Sci USA, 104:6740-6745); the cDNA of human E-cadherin, cloned into a pcDNA3.1 (+). Neo vector (pcDNA3.CAD1) was a gift from Dr. C. Gottardi (North Western University Medical School, Chicago, IL (Bos, et al. 2009, Nature 459:1005-1009); the cDNA of β4 integrin, cloned into a PRK5 plasmid (pRK5.ITB4), was purchased from Addgene (Cambridge, MA); the cDNA of human α6A integrin, inserted in pLXSN plasmid (pLα6SN (Kuo et al. 1995, Proc Natl Acad Sci USA, 92:12085-12089), was a gift of Dr. A. Magrelli (La Sapienza University, Rome, Italy). The latter was PCR-amplified with the following primer pair: • 5'-[…]-3' (SEQ ID No 28) and • 5'-[…]-3' (SEQ ID No 29) and subcloned into a pcDNA3.1 (+). Hygro vector between HindIII and ApaI sites to obtain the pcDNA3.ITA6A plasmid. […]
(§2) Adhesion, proliferation, and migration assays. […] Adhered cells were counted manually under a light microscope.

NCI-H630 cells [2] = experiment: Cell adhesion to peptides and proteins coated on microwells; type: cell-based, human
Text: Preparation of cell lines with silenced expression of the MTS-tageted genes. A transient gene silencing approach was applied to cells used exclusively for short-term, in vitro experiments. NCI-H630 cells were transduced with ON-TARGETplus SmartPOOL siRNA for ITGA6 and CDH1, or with control siRNA (Dharmacon, Lafayette, CO). For each experimental point, 2x10^5 cells were reverse-transfected with either control, ITGA6, CDH1, or both siRNA pools, according to the manufacturer's protocol. To quantify the downmodulation of targeted genes, RNA and protein levels were evaluated after 24 and 72 hours, respectively. A stable gene silencing approach was preferred for cells used for long-term, in vivo experiments. For this purpose, 2x10^5 HCT-116m, SW-48, HT-29, or DLD-1 cells were transfected with shRNA plasmid pools targeting ITGA6 (sc-43129-SH) or CDH1 (sc-35242-SH), or with non-targeting control shRNA plasmid pool A (sc-108060) (all from Santa Cruz Biotechnologies), according to the manufacturer's protocol. Following selection in medium supplemented with 2.5 µg/ml puromycin, 6 clones for each experimental point were subjected to dotblot analysis to confirm selective protein down-regulation. […]
as §2

LS-174T cells = experiment: Hepatic colonization model, intrahepatic injection of CRC cells; type: in vivo, CD-1 nude mice; conditions: 5x10^6 cells/mouse injected with 100 µM soluble peptide, 14 days, versus vehicle
Experimental: Animal models of human metastatic CRC. Six-week female CD1-nude mice were purchased from Charles River (Lecco, Italy). Animals were subjected to intraperitoneal anaesthesia with a mixture composed by 0.75 mg/ml xylazine (Xilor®, BIO98, Milan, Italy), 1 mg/ml tiletamine - 1mg/ml zolazepam (Zoletil®, Virbac, Milan, Italy), in physiological solution. After the mice were deeply asleep, a midline incision was performed and target organs were gently exposed. Two or five million suspended cells were injected in 50 µl of culture medium intrasplenically (Tibbettset al. 1993. Cancer, 71:315-321) or into the median liver lobe (Grothey, et al. 2009. Nat Rev Clin Oncol, 6:507-518), respectively. To investigate a pharmacological intervention on liver homing and/or colonization of CRC cells, animals were divided in two arms, receiving medium alone (vehicle) or supplemented with 100 µM […] peptide. The wound was closed by a double suture and each animal was given 0.1 mg caprofen (Rymadil®, Pfizer, Milan, Italy) in a physiological solution to allow post-operative pain relief and rehydration. Mice were strictly monitored until completely awake, and oral ampicillin was administered for 5 days following the surgery. […] External metastatic areas were quantified using ImageJ software.

[3] = test system: U293 cells stably overexpressing E-cadherin, α6 integrin or both; experiment: Cell proliferation assay (crystal violet); type: cell-based, human; conditions: 100 µM peptide, 10% FCS, versus control peptide
Text: as §1, with “(+).” for “(+). Hygro vector between HindIII and ApaI sites to obtain the pcDNA3.ITA6A plasmid.”
To test the effects of peptides on cell proliferation, we seeded 2x10^4 cells per well in a 24-well plate, in the presence of either control or […] peptide (100 µM). […] Cell growth was evaluated by absorbance at 590 nm in a microplate reader (Perkin Elmerm Waltham, MA). A calibration curve was set up with known numbers of cells and a linear correlation between absorbance and cell counts was established up to 5x10^5 cells/well.

HT-29 = experiment: Liver adhesion assay on frozen sections of grossly normal human liver; type: cell-based; conditions: 30 minutes, versus control peptide
Experimental: (§3) Adhesion, proliferation, and migration assays. All the described in vitro tests were performed at least in triplicate. For investigation of cell adhesion to peptides and proteins, 1 µg of each substrate was incubated per well of a 96 well-plate for 1 hour at 37°C. After a blocking step in IMDM, 2% FCS for 1 hour at 37°C, 10^4 cells were allowed to adhere for 1 hour at 37°C. Samples were washed gently in PBS, and cells were fixed in 8% glutaraldehyde and stained in 0.25% crystal violet in 10% methanol. For tissue adhesion, OCT-frozen grossly normal liver samples were cut into 10 µm sections. Tissues were blocked in IMDM, 2% FCS for 30 minutes at 37°C, followed by incubation with 5x10^4 cells in 5% CO2 at 37°C, for the indicated periods of time. Samples were washed 4 times in the same medium and once in PBS, fixed in 4% para-formaldehyde, and stained with hematoxylin (BioOptica). Adhered cells were counted manually under a light microscope.

NCI-H630 cells [4] = experiment: as above; type: cell-based; conditions: liver sections from 27 patients, 30 minutes, versus control peptide
Experimental: as §3

HCT-116 cells = experiment: as above; type: cell-based; conditions: non-metastatic cells with very low levels of the receptor proteins; 30 minutes
Experimental: as §3

DLD-1 [5] = experiment: as above; type: cell-based; conditions: 30 minutes, versus control peptide
Experimental: as §3

SW-48 [6] = experiment: as above; type: cell-based; conditions: 30 minutes, versus control peptide
Experimental: as §3

HCT-116m [7] = experiment: as above; type: cell-based; conditions: 30 minutes, versus control peptide
Experimental: as §3

β4 integrin = target: T1, β4 integrin (Homo sapiens, UniProt P16144+P23229); experiment: Affinity purification of liver metastasis lysates on column-immobilized peptide, ELISA for integrin subunits; type: binding; conditions: lysates of 7 pooled human liver metastases, versus salt and control peptide fractions
T1 construct: from tissue; host or cells: 7 pooled human liver metastases secondary to CRC
Experimental: Validation of MTS-phage targets. Binding of single phage clones on whole cells was performed with a 10^9 TU input of each phage on 5x10^5 suspended cells in binding medium as described (Chambers et al. 2002. Nat Rev Cancer, 2:563-572). For overlay binding experiments, 5 x10^9 TU/ml of each phage was incubated with 10 µm tissue sections of OCT-frozen tissues and detected as described , with the EnVision system (DAKO) and 3-amino-9-ethylcarbazole (AEC) as substrate (Arap et al 2002, Nat Med, 8:121-127; Padua et al. 2008, Cell, 133:66-77). Phage overlay images were acquired with an EC3 Leica camera (Leica Microsystems, Milan, Italy). […] Protein amounts in collected fractions were followed by reading their OD at 280 nm, and selected fractions were concentrated by the use of Microcon centrifugal filter devices with cut-off 10,000 (Millipore) to remove residual synthetic peptides. Proteins were quantified with the Coomassie (Bradford) Protein Assay Kit (Pierce), and 500 ng of each sample was evaluated for the presence of specific integrin subunits with a standard ELISA assay. In parallel, the relative amount of targeted proteins was assessed by phage binding as described (66), on 2 µg of each sample and with an input of 10^9 TU of fd-tet or […]-phage. […]

α6 integrin/E-cadherin = target: T2, α6 integrin/E-cadherin (Homo sapiens, UniProt P12830+P23229); experiment: Confocal imaging of α6 integrin and E-cadherin in explanted liver tumor tissues; type: in vivo, CD-1 nude mice; conditions: LS-174T liver tumors, cells injected with soluble peptide, 14 days
T2 construct: subjected to immunostaining with anti-α6 integrin and anti-E-cadherin antibodies followed by confocal microscopic imaging; endogenous in cells; host or cells: human CRC cells (LS-174T; also HCT-116m, SW-48, DLD-1, HT-29) xenografted into the liver of CD-1 nude mice
Experimental: Immunostaining. OCT-frozen tissues were cut in 10 µm sections, paraffin-embedded tissues in 5 µm sections. For immunostaining of cell lines, 10^4 cells were plated on a SuperFrost Plus glass slide (Menzel-Glaser, Braunschweig, Germany) and were grown for 24 hours followed by fixation in 4% paraformaldehyde in PBS for 5 minutes at room temperature. Immunostaining was performed according to standard protocols. Fluorescent images were acquired with either a DMIRE2 confocal microscope or with a DMI 3000D microscope equipped with a DFC 360FX digital camera (all from Leica. Visible images were acquired with either an EC3 Leica (immunostaining of frozen tissues) or a High-Performance IEEE 1394 FireWire Digital CCD Camera (QIMAGING, Surrey, BC, Canada) (immunostaining of paraffin-embedded tissues). For the quantification of specific fluorescent signals, 3 confocal images (1024x1024 pixels, equivalent to 375x375 µm) for each sample, acquired by keeping all the parameters constant, were divided in two 8-bit images corresponding to the red and green fluorescence channels. […]
Animal models of human metastatic CRC. […] Mice were strictly monitored until completely awake, and oral ampicillin was administered for 5 days following the surgery. […] External metastatic areas were quantified using ImageJ software.

LS-174T = experiment: Liver homing model, intrasplenic implantation; type: in vivo, CD-1 nude mice; conditions: 2x10^6/mouse intrasplenically with 100 µM soluble peptide, versus vehicle
Experimental: (§4) Animal models of human metastatic CRC. Six-week female CD1-nude mice were purchased from Charles River (Lecco, Italy). Animals were subjected to intraperitoneal anaesthesia with a mixture composed by 0.75 mg/ml xylazine (Xilor®, BIO98, Milan, Italy), 1 mg/ml tiletamine - 1mg/ml zolazepam (Zoletil®, Virbac, Milan, Italy), in physiological solution. After the mice were deeply asleep, a midline incision was performed and target organs were gently exposed. Two or five million suspended cells were injected in 50 µl of culture medium intrasplenically (Tibbettset al. 1993. Cancer, 71:315-321) or into the median liver lobe (Grothey, et al. 2009. Nat Rev Clin Oncol, 6:507-518), respectively. To investigate a pharmacological intervention on liver homing and/or colonization of CRC cells, animals were divided in two arms, receiving medium alone (vehicle) or supplemented with 100 µM […] peptide. The wound was closed by a double suture and each animal was given 0.1 mg caprofen (Rymadil®, Pfizer, Milan, Italy) in a physiological solution to allow post-operative pain relief and rehydration. Mice were strictly monitored until completely awake, and oral ampicillin was administered for 5 days following the surgery. Mice were euthanized at the indicated time points, and organs were photographed with a PL-200 digital photocamera (Samsung Electronics, Milan, Italy). External metastatic areas were quantified using ImageJ software.

DLD-1 [8] = experiment: Liver homing model, intrasplenic implantation; type: in vivo, CD-1 nude mice; conditions: 2x10^6/mouse intrasplenically with 100 µM soluble peptide, versus vehicle; effect stated as not significant in this model
Experimental: as §4

HCCM-1544 = experiment: Liver homing model, intrasplenic implantation; type: in vivo, CD-1 nude mice; conditions: 2x10^6/mouse intrasplenically with 100 µM soluble peptide, versus vehicle
Experimental: as §4

SW-48 [9] = experiment: Liver homing model, intrasplenic implantation; type: in vivo, CD-1 nude mice; conditions: 2x10^6/mouse intrasplenically with 100 µM soluble peptide, versus vehicle
Experimental: as §4

HCT-116m [10] = experiment: Liver homing model, intrasplenic implantation; type: in vivo, CD-1 nude mice; conditions: 2x10^6/mouse intrasplenically with 100 µM soluble peptide, versus vehicle; 20 days
Experimental: as §4

T2 sequence (P23229 24-1073 isoform P23229-2 limits assumed): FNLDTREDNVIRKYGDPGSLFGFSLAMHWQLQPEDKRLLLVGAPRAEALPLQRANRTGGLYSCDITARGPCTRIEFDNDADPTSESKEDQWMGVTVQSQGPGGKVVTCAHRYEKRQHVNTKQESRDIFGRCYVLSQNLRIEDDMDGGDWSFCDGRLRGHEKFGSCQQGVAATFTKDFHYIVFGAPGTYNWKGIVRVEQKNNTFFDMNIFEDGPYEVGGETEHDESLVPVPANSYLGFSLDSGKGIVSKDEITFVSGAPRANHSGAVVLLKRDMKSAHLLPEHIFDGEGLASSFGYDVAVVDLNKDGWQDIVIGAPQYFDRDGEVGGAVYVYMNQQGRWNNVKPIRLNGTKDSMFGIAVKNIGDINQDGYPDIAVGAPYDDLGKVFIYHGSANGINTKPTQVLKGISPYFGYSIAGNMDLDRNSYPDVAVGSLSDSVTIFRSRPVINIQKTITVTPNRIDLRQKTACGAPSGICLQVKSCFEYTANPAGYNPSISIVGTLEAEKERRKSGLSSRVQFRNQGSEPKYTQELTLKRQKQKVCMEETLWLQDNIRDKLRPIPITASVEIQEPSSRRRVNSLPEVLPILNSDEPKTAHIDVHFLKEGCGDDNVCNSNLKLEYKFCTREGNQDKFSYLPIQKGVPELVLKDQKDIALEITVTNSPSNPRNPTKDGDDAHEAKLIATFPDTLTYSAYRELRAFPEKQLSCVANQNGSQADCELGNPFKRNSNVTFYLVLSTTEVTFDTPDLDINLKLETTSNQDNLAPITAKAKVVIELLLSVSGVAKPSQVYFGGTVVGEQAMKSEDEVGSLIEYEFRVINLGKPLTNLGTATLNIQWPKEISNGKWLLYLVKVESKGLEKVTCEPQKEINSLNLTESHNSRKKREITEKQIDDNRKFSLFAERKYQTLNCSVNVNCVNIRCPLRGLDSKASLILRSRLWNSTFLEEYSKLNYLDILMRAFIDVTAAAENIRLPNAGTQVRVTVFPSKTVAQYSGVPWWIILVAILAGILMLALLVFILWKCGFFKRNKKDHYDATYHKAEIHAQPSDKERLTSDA
T2 sequence (P12830 155-882): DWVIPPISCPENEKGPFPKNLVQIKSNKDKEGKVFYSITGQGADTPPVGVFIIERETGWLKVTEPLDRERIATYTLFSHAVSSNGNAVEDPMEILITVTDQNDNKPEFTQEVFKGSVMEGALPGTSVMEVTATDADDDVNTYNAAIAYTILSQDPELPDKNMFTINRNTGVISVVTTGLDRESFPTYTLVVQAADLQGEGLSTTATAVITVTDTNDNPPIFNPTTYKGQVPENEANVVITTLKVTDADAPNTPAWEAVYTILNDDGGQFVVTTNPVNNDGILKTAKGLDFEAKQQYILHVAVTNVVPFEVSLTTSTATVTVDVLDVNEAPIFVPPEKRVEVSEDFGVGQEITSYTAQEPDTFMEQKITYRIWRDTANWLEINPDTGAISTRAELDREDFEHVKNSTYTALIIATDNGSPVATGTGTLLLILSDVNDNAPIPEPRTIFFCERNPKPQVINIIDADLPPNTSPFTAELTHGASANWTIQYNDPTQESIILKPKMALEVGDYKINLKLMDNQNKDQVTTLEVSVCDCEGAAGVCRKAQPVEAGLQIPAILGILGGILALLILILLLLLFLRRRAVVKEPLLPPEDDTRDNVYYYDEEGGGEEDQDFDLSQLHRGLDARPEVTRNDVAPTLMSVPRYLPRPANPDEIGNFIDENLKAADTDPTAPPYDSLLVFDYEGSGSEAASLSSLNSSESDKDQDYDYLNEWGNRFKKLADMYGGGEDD
T2 sequence (P16144 28-1822 partner): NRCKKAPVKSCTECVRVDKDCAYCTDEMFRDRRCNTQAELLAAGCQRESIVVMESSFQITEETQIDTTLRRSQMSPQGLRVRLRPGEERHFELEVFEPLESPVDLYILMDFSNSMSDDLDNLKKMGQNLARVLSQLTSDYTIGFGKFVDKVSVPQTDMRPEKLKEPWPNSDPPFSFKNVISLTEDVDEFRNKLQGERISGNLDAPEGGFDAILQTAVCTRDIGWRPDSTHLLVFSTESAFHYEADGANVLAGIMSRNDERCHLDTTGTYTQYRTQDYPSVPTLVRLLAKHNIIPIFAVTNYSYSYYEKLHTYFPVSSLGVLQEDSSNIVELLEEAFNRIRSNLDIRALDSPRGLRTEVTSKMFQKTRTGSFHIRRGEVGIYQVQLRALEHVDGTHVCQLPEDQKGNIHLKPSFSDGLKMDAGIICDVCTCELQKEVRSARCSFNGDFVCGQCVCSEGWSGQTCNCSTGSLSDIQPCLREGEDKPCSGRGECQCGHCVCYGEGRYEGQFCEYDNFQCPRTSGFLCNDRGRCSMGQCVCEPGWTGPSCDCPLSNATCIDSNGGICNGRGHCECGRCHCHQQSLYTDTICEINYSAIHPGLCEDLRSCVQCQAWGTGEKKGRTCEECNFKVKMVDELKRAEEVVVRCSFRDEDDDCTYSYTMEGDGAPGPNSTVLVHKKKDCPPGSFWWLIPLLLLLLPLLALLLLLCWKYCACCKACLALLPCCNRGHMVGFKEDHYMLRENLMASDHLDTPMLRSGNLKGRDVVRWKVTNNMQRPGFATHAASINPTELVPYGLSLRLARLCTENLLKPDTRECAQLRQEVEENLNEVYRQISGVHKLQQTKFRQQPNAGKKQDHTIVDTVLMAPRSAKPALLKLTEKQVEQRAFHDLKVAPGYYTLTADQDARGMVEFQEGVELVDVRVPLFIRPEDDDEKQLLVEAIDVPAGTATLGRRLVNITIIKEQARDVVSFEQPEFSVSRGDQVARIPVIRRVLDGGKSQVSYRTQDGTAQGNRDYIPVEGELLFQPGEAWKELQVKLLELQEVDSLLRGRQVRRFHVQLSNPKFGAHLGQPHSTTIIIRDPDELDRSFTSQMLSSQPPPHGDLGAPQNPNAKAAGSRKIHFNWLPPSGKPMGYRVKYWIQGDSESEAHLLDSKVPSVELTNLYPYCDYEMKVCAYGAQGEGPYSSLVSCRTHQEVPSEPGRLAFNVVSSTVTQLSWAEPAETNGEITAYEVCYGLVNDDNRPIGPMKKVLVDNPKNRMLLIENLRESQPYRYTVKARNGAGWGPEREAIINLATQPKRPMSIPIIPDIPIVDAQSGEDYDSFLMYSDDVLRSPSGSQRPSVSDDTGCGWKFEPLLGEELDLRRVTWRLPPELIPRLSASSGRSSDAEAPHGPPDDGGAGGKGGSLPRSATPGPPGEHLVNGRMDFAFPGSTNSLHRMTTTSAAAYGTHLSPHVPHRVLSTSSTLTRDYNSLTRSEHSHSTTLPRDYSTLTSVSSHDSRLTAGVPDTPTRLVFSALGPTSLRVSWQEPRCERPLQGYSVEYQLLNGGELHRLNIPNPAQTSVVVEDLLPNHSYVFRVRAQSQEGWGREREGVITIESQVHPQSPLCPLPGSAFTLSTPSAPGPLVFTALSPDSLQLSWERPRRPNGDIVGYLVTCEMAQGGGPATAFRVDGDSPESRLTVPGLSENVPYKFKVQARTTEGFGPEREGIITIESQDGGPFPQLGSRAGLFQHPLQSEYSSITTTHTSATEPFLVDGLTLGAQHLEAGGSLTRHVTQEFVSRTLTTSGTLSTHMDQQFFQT
T1 sequence (P16144 28-1822): as the sequence (P16144 28-1822 partner) above
T1 sequence (P23229 24-1073 isoform P23229-2 limits assumed): as the sequence (P23229 24-1073 isoform P23229-2 limits assumed) above

“CGIYRLRSC [Targeting synthetic LRS-motif peptide, from New England Peptides]” was tested, and the liver adhesion [1] was “inhibited liver adhesion of U293 cells only when they concomitantly expressed α6 integrin and E-cadherin”, the “adherence of cells to microwells coated with the peptide” value (NCI-H630 cells [2]; NCI-H630 cells in which ITGA6 or both mRNAs were silenced, 1 µg substrate per well, 1 hour) was “impaired adherence” and the “adherence of cells to microwells coated with the peptide” value (NCI-H630 cells [2]; NCI-H630 cells with both α6 integrin and E-cadherin downmodulated) was “particularly pronounced”. The “liver tumors (external tumor areas)” value (LS-174T cells) was “significant reduction of liver tumors”, the proliferation [3] was “no effects” and the “adhesiveness on hepatic tissues” value (HT-29) was “significantly inhibited”. The “cell adhesion to human liver sections” value (NCI-H630 cells [4]) was “significant decrease in cell adhesion”, the “adhesion to normal hepatic tissues” value (HCT-116 cells) was “not influenced” and the “adhesiveness on hepatic tissues” value (DLD-1 [5]) was “significantly inhibited”. For the same sequence, the “adhesiveness on hepatic tissues” value (SW-48 [6]) was “significantly inhibited”, the “adhesiveness on hepatic tissues” value (HCT-116m [7]) was “significantly inhibited” and the “enrichment of integrin subunit in peptide- and phage-targeted protein fractions” value (β4 integrin) was “substantial enrichment in the β4 subunit”. The “overall morphology and levels of receptor complex in the tumors” value (α6 integrin/E-cadherin) was “unchanged”, the “homing of CRC cells to the liver (external metastatic areas)” value (“homing of CRC cells to the liver” for short) (LS-174T) was “diminished homing of CRC cells to the liver, which was significant” and the “homing of CRC cells to the liver” value (DLD-1 [8]) was “diminished homing of CRC cells to the liver”. The “homing of CRC cells to the liver” value (HCCM-1544) was “diminished homing of CRC cells to the liver, which was significant”, the “homing of CRC cells to the liver” value (SW-48 [9]) was “diminished homing of CRC cells to the liver, which was significant” and the “homing of CRC cells to the liver” value (HCT-116m [10]) was “diminished homing of CRC cells to the liver, which was significant”.
